Assay results published in patent publication US5001156A, “Lipophilic quaternary ammonium salicylates, their use in cosmetics and in dermopharmacy” (priority 1986, dated 1991).
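Further: MIC reported in µg/ml.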

These compounds were tested on Propionibacterium acnes strain ATCC 6919 (assay: Minimal Inhibitory Concentration (MIC) by the dilution method). Conditions: Propionibacterium acnes ATCC 6919, DMSO.
Assay type: cell-based
With `CCCCCCCCCCCC(=O)c1ccc(O)c(C(=O)[O-])c1.C[N+](C)(C)C` [Compound 15, N,N,N,N-tetramethylammonium 5-dodecanoylsalicylate] the MIC was 2.5 µg/mL.
`CCCCCCCCCCCC(=O)c1ccc(O)c(C(=O)[O-])c1.CCCCCCCCCCCCCCCC[N+]12CCN(CC1)CC2` [Compound 23, 1'-azonia-4'-azabicyclo[2.2.2]octylhexadecane 5-dodecanoylsalicylate] gave an MIC of 1.5 µg/mL.
`CC(C)(C)CC(C)(C)c1ccc(OCCOCC[N+](C)(C)Cc2ccccc2)cc1.CCCCCCCC(=O)c1ccc(O)c(C(=O)[O-])c1` [Compound 24, benzethonium 5-octanoylsalicylate] gave an MIC of 1.2 µg/mL.
For `CC(C)(C)CC(C)(C)c1ccc(OCCOCC[N+](C)(C)Cc2ccccc2)cc1.CCCCCCCCCCCC(=O)c1ccc([O-])c(C(=O)O)c1` [Compound 25, benzethonium 5-dodecanoylsalicylate], the MIC was 2 µg/mL.
With “Hexadecyltrimethylammonium laurate [Compound 2, reference compound]” the MIC was 26 µg/mL.
For “Hexadecyltrimethylammonium stearate [Compound 3, reference compound]”, the MIC was 25 µg/mL.
“N-(2-Hydroxyethyl)-N,N,N-trimethylammonium salicylate [Compound 19, reference compound]” gave an MIC of over 100 µg/mL.
Work on “N-Hexadecyl-N,N,N-trimethylammonium salicylate [Compound 1, reference compound]” yielded an MIC of 21 µg/mL.
Work on “N-benzyl-N,N,N-trimethylammonium 5-decanoylsalicylate [Compound 13]” yielded an MIC of 3.2 µg/mL.
Compound “N-benzyl-N,N-dimethyl-N-hexadecylammonium 5-decanoylsalicylate [Compound 11]” has an MIC of 1.5 µg/mL.
Work on “N-benzyl-N,N-dimethyl-N-hexadecylammonium 5-dodecanoylsalicylate [Compound 12]” yielded an MIC of 1 µg/mL.
Work on “N-benzyl-N,N-dimethyl-N-hexadecylammonium 5-octanoylsalicylate [Compound 10]” yielded an MIC of 0.54 µg/mL.
“N-dodecyl-N-methylmorpholinium 5-decanoylsalicylate [Compound 21]” showed an MIC of 9 µg/mL.
In the case of “N-hexadecyl-N,N,N-trimethylammonium 5-decanoylsalicylate [Compound 5]”, the MIC is reported as 2.3 µg/mL.
“N-hexadecyl-N,N,N-trimethylammonium 5-dodecanoylsalicylate [Compound 6]” was tested, and the MIC was 3.2 µg/mL.
“N-hexadecyl-N,N,N-trimethylammonium 5-octanoylsalicylate [Compound 4]” gave an MIC of 8 µg/mL.
“N-hexadecyl-N,N-dimethyl-N-(β-hydroxyethyl)ammonium 5-decanoylsalicylate [Compound 14]” was tested, and the MIC was 3.6 µg/mL.
Work on “N-hexadecyl-N-methylimidazolinium 5-dodecanoylsalicylate [Compound 20]” yielded an MIC of 13.5 µg/mL.
Work on “N-hexadecylpyridinium 5-decanoylsalicylate sesquihydrate [Compound 8]” yielded an MIC of 1.2 µg/mL.
For “N-hexadecylpyridinium 5-dodecanoylsalicylate hydrate [Compound 9]”, the MIC was 1.2 µg/mL.
Work on “N-hexadecylpyridinium 5-octanoylsalicylate monohydrate [Compound 7]” yielded an MIC of 2.4 µg/mL.
“N-methyl-N-octylpiperidinium 5-dodecanoylsalicylate [Compound 22]” gave an MIC of 4.9 µg/mL.
Work on “dimethylethyldodecylammonium 5-decanoylsalicylate [Compound 16]” yielded an MIC of 6.2 µg/mL.
Compound “trimethyl-(β-hydroxyethyl)ammonium 5-decanoylsalicylate [Compound 17]” has an MIC of 11 µg/mL.
Work on “trimethyl-(β-hydroxyethyl)ammonium 5-dodecanoylsalicylate [Compound 18]” yielded an MIC of 4.8 µg/mL.
